This assay deals with P388 leukemia ip, CD2F1 mice, survival T/C. Kind of assay: NCI In Vivo Anticancer Drug Screen. Data for tumor model P388 Leukemia (intraperitoneal) in CD2F1 (CDF1) mice. Conditions: endpoint: median survival time, higher = longer survival. In short, it runs like this: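 Mice carrying the transplanted tumor received test compound or vehicle. Survival was recorded in each group, and the value is the treated-group measurement divided by that of the vehicle-treated control group.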

Setting [1] is: dose: 60.0 mg/kg/injection, schedule: Q01DX005 (ip), vehicle: Klucel (hydroxypropylcellulose) (HPC).
[2] abbreviates: dose: 120.0 mg/kg/injection, schedule: Q01DX005 (ip), vehicle: Klucel (hydroxypropylcellulose) (HPC).
The mark [3] stands for this setting: dose: 240.0 mg/kg/injection, schedule: Q01DX005 (ip), vehicle: Klucel (hydroxypropylcellulose) (HPC).
[4] abbreviates: dose: 25.0 mg/kg/injection, schedule: Q01DX009 (ip), vehicle: saline with Tween-80.
Setting [5] is: dose: 50.0 mg/kg/injection, schedule: Q01DX009 (ip), vehicle: saline with Tween-80.
Setting [6] is: dose: 100.0 mg/kg/injection, schedule: Q01DX009 (ip), vehicle: saline with Tween-80.
The mark [7] stands for this setting: dose: 200.0 mg/kg/injection, schedule: Q01DX009 (ip), vehicle: saline with Tween-80.
The mark [8] stands for this setting: dose: 50.0 mg/kg/injection, schedule: Q01DX009 (ip), vehicle: Klucel (hydroxypropylcellulose) (HPC).
Setting [9] is: dose: 100.0 mg/kg/injection, schedule: Q01DX009 (ip), vehicle: Klucel (hydroxypropylcellulose) (HPC).
Where [10] appears, read: dose: 50.0 mg/kg/injection, schedule: Q01DX009 (ip), vehicle: saline.
Setting [11] is: dose: 25.0 mg/kg/injection, schedule: Q01DX009 (ip), vehicle: saline.
The mark [12] stands for this setting: dose: 100.0 mg/kg/injection, schedule: Q01DX009 (ip), vehicle: saline.
Setting [13] is: dose: 50.0 mg/kg/injection, schedule: Q01DX005 (ip), vehicle: Klucel (hydroxypropylcellulose) (HPC).
[14] abbreviates: dose: 100.0 mg/kg/injection, schedule: Q01DX005 (ip), vehicle: Klucel (hydroxypropylcellulose) (HPC).
[15] abbreviates: dose: 200.0 mg/kg/injection, schedule: Q01DX005 (ip), vehicle: Klucel (hydroxypropylcellulose) (HPC).
[16] abbreviates: dose: 50.0 mg/kg/injection, schedule: Q01DX005 (ip), vehicle: saline with Tween-80.
Where [17] appears, read: dose: 100.0 mg/kg/injection, schedule: Q01DX005 (ip), vehicle: saline with Tween-80.
The mark [18] stands for this setting: dose: 200.0 mg/kg/injection, schedule: Q01DX005 (ip), vehicle: saline with Tween-80.

Where “and” joins values, the source holds several entries; their conditions need not be identical. Equal entries are not always repeated. Inconclusive results and toxic doses are left out.

On to `Nc1[nH]c(=S)[nH]c(=O)c1NS(=O)(=O)c1ccccc1[N+](=O)[O-]`, for which the T/C (dose: 30.0 mg/kg/injection, schedule: Q01DX005 (ip), vehicle: Klucel (hydroxypropylcellulose) (HPC)) was 100 % of control and 94 % of control; the T/C under setting [1] was 98 % of control and 100 % of control; the T/C under setting [2] was 100 % of control and 97 % of control; the T/C under setting [3] is 100 % of control.

With `CC1(C)COC(c2cc(Br)ccc2Br)=N1`, the T/C was 100 % of control (dose: 12.5 mg/kg/injection, schedule: Q01DX009 (ip), vehicle: saline with Tween-80); 102 % of control under setting [4]; 97 % of control under setting [5]; 97 % of control under setting [6]; 101 % of control under setting [7].

With `Clc1ccc(C2(c3ccncc3)OCCO2)cc1`, the T/C reads like this: (dose: 75.0 mg/kg/injection, schedule: Q01DX001 (ip), vehicle: saline) 109 % of control; (dose: 150.0 mg/kg/injection, schedule: Q01DX001 (ip), vehicle: saline) 104 % of control; (dose: 300.0 mg/kg/injection, schedule: Q01DX001 (ip), vehicle: saline) 90 % of control.

As to `O=C1CCC(C(Sc2ccccc2)(Sc2ccccc2)Sc2ccccc2)C1` (centres undefined), the T/C under setting [8] was 97 % of control; the T/C under setting [9] is 90 % of control; the T/C (dose: 200.0 mg/kg/injection, schedule: Q01DX009 (ip), vehicle: Klucel (hydroxypropylcellulose) (HPC)) was 89 % of control.

Consider `CN1CCN(C(=O)Nc2ccc(N=Nc3ccccc3)cc2)CC1`, for which the T/C runs as follows: (dose: 12.5 mg/kg/injection, schedule: Q01DX009 (ip), vehicle: saline sonified) 105 % of control; (dose: 25.0 mg/kg/injection, schedule: Q01DX009 (ip), vehicle: saline sonified) 100 % of control.

Regarding `c1cc(-c2ncc3ccncc3n2)ccn1`, the T/C is 109 % of control under setting [1], 100 % of control under setting [2] and 98 % of control under setting [3].

As to `O=c1[nH]c2c(ccc3cnccc32)c2c1CCC2`, the T/C (dose: 12.5 mg/kg/injection, schedule: Q01DX009 (ip), vehicle: saline) was 122 % of control and the T/C under setting [10] was 94 % of control.

On to `O=[N+]([O-])c1ccc(/C=C(/c2ccc([N+](=O)[O-])o2)S(=O)(=O)C(Cl)(Cl)Cl)cc1`, for which the T/C under setting [11] was 100 % of control; the T/C under setting [10] is 89 % of control; the T/C under setting [12] is 91 % of control; the T/C (dose: 100.0 mg/kg/injection, schedule: Q01DX009 (ip), vehicle: suspension in saline) was 86 % of control.

Regarding `O=C(O)c1c(Cl)c(Cl)c(Cl)c(Cl)c1C(=O)OCC1CCCO1` (centres undefined), the T/C runs as follows: under setting [5], 90 % of control; under setting [6], 106 % of control; under setting [7], 101 % of control.

For `CC(C)(C)C(=O)CC(Cc1nccc2ccccc12)c1ccccc1` (centres undefined), the T/C under setting [5] was 106 % of control, the T/C under setting [6] is 104 % of control and the T/C under setting [7] was 103 % of control.

Turning to `CCC1OC(O)C=CC1=O` (centres undefined), the T/C (dose: 1.5 mg/kg/injection, schedule: Q01DX005 (ip), vehicle: saline) is 99 % of control and the T/C (dose: 3.0 mg/kg/injection, schedule: Q01DX005 (ip), vehicle: saline) was 93 % of control.

As for `CC(/C=C/c1ccccc1)=N\Nc1ccc(Cl)cc1Cl`, the T/C runs as follows: under setting [8], 118 % of control; under setting [9], 100 % of control.

Turning to `NC(=O)CCNC(=O)CCCNC(=O)CCC[c-]1[c-][c-][c-][c-]1.[Fe].[c-]1[c-][c-][cH-][c-]1`, the T/C is, setting by setting: (dose: 12.5 mg/kg/injection, schedule: Q01DX009 (ip), vehicle: distilled water + Tween-80) 111 % of control and 119 % of control; (dose: 25.0 mg/kg/injection, schedule: Q01DX009 (ip), vehicle: distilled water + Tween-80) 115 % of control; (dose: 100.0 mg/kg/injection, schedule: Q01DX009 (ip), vehicle: distilled water + Tween-80) 123 % of control.

As to `S=C1CC(N2CCCC2)=Nc2ccccc2N1`, the T/C is, setting by setting: under setting [13], 100 % of control; under setting [14], 90 % of control; under setting [15], 95 % of control.

With `CC(=NC(C)(C)C)N1CCCCC1`, the T/C reads like this: under setting [11], 106 % of control; under setting [10], 100 % of control and 90 % of control; under setting [12], 105 % of control.

As to `O=C1c2ccccc2C(=O)c2c(NC(=O)C(F)(F)F)cccc21`, the T/C reads like this: (dose: 12.5 mg/kg/injection, schedule: Q01DX005 (ip), vehicle: Klucel (hydroxypropylcellulose) (HPC)) 96 % of control; (dose: 25.0 mg/kg/injection, schedule: Q01DX005 (ip), vehicle: Klucel (hydroxypropylcellulose) (HPC)) 93 % of control; under setting [13], 87 % of control and 89 % of control.

Take `O=C(c1ccccc1)C(O)NC(=S)c1ccc(Cl)cc1` (centres undefined): the T/C under setting [5] was 107 % of control, the T/C under setting [6] was 113 % of control and the T/C under setting [7] is 113 % of control.

Turning to `O=C1c2ccccc2CN(c2ccccc2)C(=Nc2ccccc2)N1c1ccccc1`, the T/C under setting [16] was 95 % of control, the T/C under setting [17] is 93 % of control and the T/C under setting [18] was 95 % of control.

`C=C1C(=O)O[C@H]2C1[C@H](OC(=O)/C(C)=C\C)CC(=C)[C@@H]1C(=O)[C@H]3O[C@@]3(C)[C@@]12O` (some centres undefined): the T/C by setting is: (dose: 12.5 mg/kg/injection, schedule: Q01DX005 (ip), vehicle: saline + alcohol) 116 % of control and 117 % of control; (dose: 25.0 mg/kg/injection, schedule: Q01DX005 (ip), vehicle: saline + alcohol) 110 % of control and 121 % of control.

Turning to `CCCc1cc2ccccc2c2ccccc12`, the T/C reads like this: under setting [13], 102 % of control; under setting [14], 96 % of control; under setting [15], 99 % of control.

Turning to `O=C(CCSCCC(=O)N/N=C(\CO)C(O)C(O)C(O)CO)N/N=C(/CO)C(O)C(O)C(O)CO` (centres undefined), the T/C (dose: 50.0 mg/kg/injection, schedule: Q01DX005 (ip), vehicle: suspension in saline) is 99 % of control; the T/C (dose: 100.0 mg/kg/injection, schedule: Q01DX005 (ip), vehicle: suspension in saline) was 104 % of control; the T/C (dose: 200.0 mg/kg/injection, schedule: Q01DX005 (ip), vehicle: suspension in saline) is 97 % of control.

In the case of `CCCCCSCN(CC)CC`, the T/C under setting [4] is 103 % of control; the T/C under setting [11] is 99 % of control and 101 % of control; the T/C under setting [10] is 100 % of control and 104 % of control and 91 % of control; the T/C under setting [12] was 99 % of control and 101 % of control and 104 % of control; the T/C under setting [7] was 114 % of control; the T/C (dose: 200.0 mg/kg/injection, schedule: Q01DX009 (ip), vehicle: saline) was 119 % of control (2×) and 120 % of control.

As for `CC(=O)OCc1c(Cl)nc2sccn12`, the T/C is, setting by setting: (dose: 100.0 mg/kg/injection, schedule: Q01DX001 (ip), vehicle: Klucel (hydroxypropylcellulose) (HPC)) 104 % of control and 108 % of control; (dose: 200.0 mg/kg/injection, schedule: Q01DX001 (ip), vehicle: Klucel (hydroxypropylcellulose) (HPC)) 109 % of control and 117 % of control.

Take `CN1CCC/C1=C1/Cc2ccccc2C1=O`: the T/C runs as follows: under setting [13], 91 % of control; under setting [14], 108 % of control.

`CN(C)c1ccc(/C=N/NC(=O)c2ccccc2N)c(Cl)c1`: the T/C (dose: 60.0 mg/kg/injection, schedule: Q01DX005 (ip), vehicle: saline with Tween-80) was 96 % of control and the T/C (dose: 120.0 mg/kg/injection, schedule: Q01DX005 (ip), vehicle: saline with Tween-80) is 89 % of control.

For the molecule `N=C(N)c1ccc(N=Nc2cc(/C=C/c3ccccc3)ccc2O)cc1`, the T/C by setting is: under setting [13], 110 % of control; under setting [14], 92 % of control.

For `O=c1ccc2cc3c(c(O)c2o1)OC=CC3`, the T/C under setting [8] was 98 % of control and the T/C under setting [9] was 94 % of control.

Turning to `COc1cc2c(Cl)ncnc2c(OC)c1OC`, the T/C under setting [16] was 106 % of control, the T/C under setting [17] was 106 % of control and the T/C under setting [18] is 109 % of control.

For the molecule `NNC(=O)NN1C(=O)c2cc(S(=O)(=O)O)cc3c(N)c(S(=O)(=O)O)cc(c23)C1=O`, the T/C (dose: 50.0 mg/kg/injection, schedule: Q01DX005 (ip), vehicle: saline) is 98 % of control; the T/C (dose: 100.0 mg/kg/injection, schedule: Q01DX005 (ip), vehicle: saline) was 104 % of control; the T/C (dose: 200.0 mg/kg/injection, schedule: Q01DX005 (ip), vehicle: saline) was 99 % of control.

Values taken from PubChem BioAssay AID330 (DTP/NCI, 2004).
